Assay results taken from US9217015B2, “Cyclosporin derivatives for the treatment and prevention of a viral infection” (S&T Global Inc., priority 2010, dated 2015).
Like-named read-outs stand apart in the source and are kept apart here. Numbered stars: 1 amine (or outer) side, 2 acyl side, 3 side chain; on linkers, the order of the positions; unused ones are H or OH. Square brackets hold non-standard residues; d marks the D form. Peptide text beside a SMILES is read from it. ξ: configuration not given here. MeBmt = C/C=C/C[C@@H](C)[C@@H](O)[C@H](NC)C(=O)O; X1 = CN([C@H](SCCCN1CCOCC1)C(=O)[*:2])[*:1]; X2 = CCN(CC)CCCS[C@H](C(=O)[*:2])N(C)[*:1]; X3 = CCN(CC)CCS[C@H](C(=O)[*:2])N(C)[*:1]; NMeIle(3ξ) = CCC(C)[C@H](NC)C(=O)O; NMeL = CN[C@@H](CC(C)C)C(=O)O; NMeV = CN[C@H](C(=O)O)C(C)C; Abu = CC[C@H](N)C(=O)O

Assays:
[1] = tested on: HCV replicon; assay: HCV subgenomic replicon assay (Huh7 ET luc-ubi-neo/ET cells, luciferase end point); format: cell-based; conditions: read-out: Antiviral activity IC50
Procedure: The anti-HCV activity of cyclosporine derivatives were evaluated in the HCV subgenomic replicon assay. The assay use the cell line ET (luc-ubi-neo/ET), which is a Huh7 human hepatoma cell line harboring an HCV replicon with a stable luciferase (Luc) reporter. HCV RNA replication was assessed by quantifying HCV replicon-derived luciferase activity. The antiviral activity of cyclosporine analogs were evaluated after drug treatment, the EC 50 and EC 90 were determined in subsequent assessments by using the luciferase end point (Krieger, N. et al., 2001, J. Virol. 75:4614-4624; Pietschmann, T. et al., 2002, J. Virol. 76:4008-4021; each of which is incorporated herein by reference).

[2] = format: physicochemical
Procedure: The stability of Cyclosporin derivatives were evaluated in methanol at 65° C. and 50° C., and HPLC was used to monitor possible degradation of these compounds (C8, 250 mm, NH4OAc 10 mmol in MeCN and H2O, operation temperature: 65° C.).

[3] = Huh7 ET (luc-ubi-neo/ET) cells, HCV replicon-derived luciferase activity

Epimerization in MeOH at 50° C. ([2]; 29 hrs) [%]	Epimerization in MeOH at 50° C. ([2]; 77 hrs) [%]	Epimerization in MeOH at 50° C. ([2]; 125 hrs) [%]	Molecule	also measured
–	–	–	C/C=C/C[C@@H](C)[C@@H](O)[C@H]1C(=O)N[C@@H](CC)C(=O)N(C)[C@H](SCCCN2CCOCC2)C(=O)N(C)[C@@H](C(C)CC)C(=O)N[C@@H](C(C)C)C(=O)N(C)[C@@H](CC(C)C)C(=O)N[C@@H](C)C(=O)N[C@H](C)C(=O)N(C)[C@@H](CC(C)C)C(=O)N(C)[C@@H](CC(C)C)C(=O)N(C)[C@@H](C(C)C)C(=O)N1C (stereo partly drawn) [Example 6, [(R)-3-(N-Morpholino)propylthio-Sar]-3-[N-methylisoleucine]-4-cyclosporin] (cyclo(A[dA][NMeL][NMeL][NMeV][MeBmt][Abu][X1][NMeIle(3ξ)]V[NMeL]))	IC50 ([1]; Hepatitis C virus, Huh7 ET): 50 nM
0	0	0	C/C=C/C[C@@H](C)[C@@H](O)[C@H]1C(=O)N[C@@H](CC)C(=O)N(C)[C@H](SCCCN2CCOCC2)C(=O)N(C)[C@@H](C(C)C)C(=O)N[C@@H](C(C)C)C(=O)N(C)[C@@H](CC(C)C)C(=O)N[C@@H](C)C(=O)N[C@H](C)C(=O)N(C)[C@@H](CC(C)C)C(=O)N(C)[C@@H](CC(C)C)C(=O)N(C)[C@@H](C(C)C)C(=O)N1C (cyclo(A[dA][NMeL][NMeL][NMeV][MeBmt][Abu][X1][NMeV]V[NMeL]))	–
–	–	–	C/C=C/C[C@@H](C)[C@@H](O)[C@H]1C(=O)N[C@@H](CC)C(=O)N(C)[C@H](SCCN(C)C)C(=O)N(C)[C@@H](CC(C)C)C(=O)N[C@@H](C(C)C)C(=O)N(C)[C@@H](CC(C)C)C(=O)N[C@@H](C)C(=O)N[C@H](C)C(=O)N(C)[C@@H](CC(C)C)C(=O)N(C)[C@@H](CC(C)C)C(=O)N(C)[C@@H](C(C)C)C(=O)N1C [drawing 57]	Epimerization in MeOH at 65° C. ([2]; 2 hours): 12%; Epimerization in MeOH at 65° C. ([2]; 4 hours): 19%; Epimerization in MeOH at 65° C. ([2]; 6 hours): 23%
–	–	–	C/C=C/C[C@@H](C)[C@@H](O)[C@H]1C(=O)N[C@@H](CC)C(=O)N(C)[C@H](SCCN(C)C)C(=O)N(C)[C@@H](CC(C)(C)O)C(=O)N[C@@H](C(C)C)C(=O)N(C)[C@@H](CC(C)C)C(=O)N[C@@H](C)C(=O)N[C@H](C)C(=O)N(C)[C@@H](CC(C)C)C(=O)N(C)[C@@H](CC(C)C)C(=O)N(C)[C@@H](C(C)C)C(=O)N1C [SCY-635, reference compound]	Chemical stability (conversion to epimer), in words [2]: not chemically stable
0	0	0	C/C=C/C[C@@H](C)[C@@H](O)[C@H]1C(=O)N[C@@H](CC)C(=O)N(C)[C@H](SCCCN(CC)CC)C(=O)N(C)[C@@H](C(C)CC)C(=O)N[C@@H](C(C)C)C(=O)N(C)[C@@H](CC(C)C)C(=O)N[C@@H](C)C(=O)N[C@H](C)C(=O)N(C)[C@@H](CC(C)C)C(=O)N(C)[C@@H](CC(C)C)C(=O)N(C)[C@@H](C(C)C)C(=O)N1C (some centres unmarked) (cyclo(A[dA][NMeL][NMeL][NMeV][MeBmt][Abu][X2][NMeIle(3ξ)]V[NMeL]))	–
–	–	–	C/C=C/C[C@@H](C)[C@@H](O)[C@H]1C(=O)N[C@@H](CC)C(=O)N(C)CC(=O)N(C)[C@@H](C(C)C)C(=O)N[C@@H](C(C)C)C(=O)N(C)[C@@H](CC(C)C)C(=O)N[C@@H](C)C(=O)N[C@H](C)C(=O)N(C)[C@@H](CC(C)C)C(=O)N(C)[C@@H](CC(C)C)C(=O)N(C)[C@@H](C(C)C)C(=O)N1C [SDZ-220-384, N-MeVal-4-cyclosporin, reference compound]	IC50 [1, 3]: 170 nM
–	–	–	C/C=C/C[C@@H](C)[C@@H](O)[C@H]1C(=O)N[C@@H](CC)C(=O)N(C)[C@H](SCCN(CC)CC)C(=O)N(C)[C@@H](C(C)C)C(=O)N[C@@H](C(C)C)C(=O)N(C)[C@@H](CC(C)C)C(=O)N[C@@H](C)C(=O)N[C@H](C)C(=O)N(C)[C@@H](CC(C)C)C(=O)N(C)[C@@H](CC(C)C)C(=O)N(C)[C@@H](C(C)C)C(=O)N1C [Example 1, [(R)-2-(N,N-Diethylamino)ethylthio-Sar]-3-[N-methylvaline]-4-cyclosporin] (cyclo(A[dA][NMeL][NMeL][NMeV][MeBmt][Abu][X3][NMeV]V[NMeL]))	IC50 ([1]; Hepatitis C virus, Huh7 ET): 50 nM
–	–	–	C/C=C/C[C@@H](C)[C@@H](O)[C@H]1C(=O)N[C@@H](CC)C(=O)N(C)CC(=O)N(C)[C@@H]([C@@H](C)CC)C(=O)N[C@@H](C(C)C)C(=O)N(C)[C@@H](CC(C)C)C(=O)N[C@@H](C)C(=O)N[C@H](C)C(=O)N(C)[C@@H](CC(C)C)C(=O)N(C)[C@@H](CC(C)C)C(=O)N(C)[C@@H](C(C)C)C(=O)N1C [SDZ-NIM-811, N-MeIle-4-Cyclosporin, reference compound]	IC50 ([1]; Hepatitis C virus, Huh7 ET): 150 nM
0	0	0	C/C=C/C[C@@H](C)[C@@H](O)[C@H]1C(=O)N[C@@H](CC)C(=O)N(C)[C@H](SCCCN2CCOCC2)C(=O)N(C)[C@@H](C(C)CC)C(=O)N[C@@H](C(C)C)C(=O)N(C)[C@@H](CC(C)C)C(=O)N[C@@H](C)C(=O)N[C@H](C)C(=O)N(C)[C@@H](CC(C)C)C(=O)N(C)[C@@H](CC(C)C)C(=O)N(C)[C@@H](C(C)C)C(=O)N1C (some centres unmarked) (cyclo(A[dA][NMeL][NMeL][NMeV][MeBmt][Abu][X1][NMeIle(3ξ)]V[NMeL]))	–
0	0	0	C/C=C/C[C@@H](C)[C@@H](O)[C@H]1C(=O)N[C@@H](CC)C(=O)N(C)[C@H](SCCCN(CC)CC)C(=O)N(C)[C@@H](C(C)C)C(=O)N[C@@H](C(C)C)C(=O)N(C)[C@@H](CC(C)C)C(=O)N[C@@H](C)C(=O)N[C@H](C)C(=O)N(C)[C@@H](CC(C)C)C(=O)N(C)[C@@H](CC(C)C)C(=O)N(C)[C@@H](C(C)C)C(=O)N1C (cyclo(A[dA][NMeL][NMeL][NMeV][MeBmt][Abu][X2][NMeV]V[NMeL]))	–
–	–	–	[(S)-2-(N,N-Diethylamino)ethylthio-Sar]-3-[N-methylvaline]-4-cyclosporin	IC50 [1, 3]: 3660 nM
25.5	31.8	34.9	C/C=C/C[C@@H](C)[C@@H](O)[C@H]1C(=O)N[C@@H](CC)C(=O)N(C)[C@H](SCCN(C)C)C(=O)N(C)[C@@H](CC(C)C)C(=O)N[C@@H](C(C)C)C(=O)N(C)[C@@H](CC(C)C)C(=O)N[C@@H](C)C(=O)N[C@H](C)C(=O)N(C)[C@@H](CC(C)C)C(=O)N(C)[C@@H](CC(C)C)C(=O)N(C)[C@@H](C(C)C)C(=O)N1C [drawing 58, reference compound]	–
–	–	–	C/C=C/C[C@@H](C)[C@@H](O)[C@H]1C(=O)N[C@@H](CC)C(=O)N(C)[C@H](SCCN(CC)CC)C(=O)N(C)[C@@H](C(C)CC)C(=O)N[C@@H](C(C)C)C(=O)N(C)[C@@H](CC(C)C)C(=O)N[C@@H](C)C(=O)N[C@H](C)C(=O)N(C)[C@@H](CC(C)C)C(=O)N(C)[C@@H](CC(C)C)C(=O)N(C)[C@@H](C(C)C)C(=O)N1C (stereo partly drawn) [Example 4, [(R)-2-(N,N-Diethylamino)ethylthio-Sar]-3-[N-methylisoleucine]-4-cyclosporin] (cyclo(A[dA][NMeL][NMeL][NMeV][MeBmt][Abu][X3][NMeIle(3ξ)]V[NMeL]))	IC50 ([1]; Hepatitis C virus, Huh7 ET): 40 nM
–	–	–	C/C=C/C[C@@H](C)[C@@H](O)[C@H]1C(=O)N[C@@H](CC)C(=O)N(C)[C@H](SCCN(C)C)C(=O)N(C)[C@@H](CC(C)C)C(=O)N[C@@H](C(C)C)C(=O)N(C)[C@@H](CC(C)C)C(=O)N[C@@H](C)C(=O)N[C@H](C)C(=O)N(C)[C@@H](CC(C)C)C(=O)N(C)[C@@H](CC(C)C)C(=O)N(C)[C@@H](C(C)C)C(=O)N1C [[(R)-2-(N,N-Dimethylamino)ethylthio-Sar]-3-cyclosporin, reference compound]	Chemical stability (conversion to epimer), in words [2]: not stable
4.4	10.4	16.2	C/C=C/C[C@@H](C)[C@@H](O)[C@H]1C(=O)N[C@@H](CC)C(=O)N(C)[C@H](SCCN(CC)CC)C(=O)N(C)[C@@H](C(C)CC)C(=O)N[C@@H](C(C)C)C(=O)N(C)[C@@H](CC(C)C)C(=O)N[C@@H](C)C(=O)N[C@H](C)C(=O)N(C)[C@@H](CC(C)C)C(=O)N(C)[C@@H](CC(C)C)C(=O)N(C)[C@@H](C(C)C)C(=O)N1C (some centres unmarked) [reference compound] (cyclo(A[dA][NMeL][NMeL][NMeV][MeBmt][Abu][X3][NMeIle(3ξ)]V[NMeL]))	–
